This is an account of results in patent US9453062B2, “Glucose dependent insulinotropic polypeptide analogs, pharmaceutical compositions and use thereof” (Beijing Hanmi Pharmaceutical Co., Ltd., priority 2011, dated 2016).

pEC50: −log10 of the molar value. Read-outs that look alike come from different tables or passages of the source. Where a SMILES comes first, the peptide text is derived from it. [ ]: non-standard residue; d: D form. The star is where a group is joined. Phe(4-NO2) = N[C@@H](Cc1ccc([N+](=O)[O-])cc1)C(=O)O; Biotin = O=C1N[C@H]2[C@H](CS[C@H]2CCCCC(=O)*)N1; Met(O) = CS(=O)CC[C@H](N)C(=O)O; Aib = CC(C)(N)C(=O)O

One experiment has as its target T1, hGLP-1R (Homo sapiens, UniProt P43220).
T1 construct: expressed in transfected cells; host or cells: CHO
Put plainly: hGLP-1R-mediated cAMP induction assay in CHO cell line.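 Also: CHO cells expressing human GLP-1R, treated 30 min at 37 °C, intracellular cAMP measured by competitive fluorescent immunoassay and converted via a cAMP standard curve.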 Format: cell-based.

Another experiment concerns the target T2, hGIPR (Homo sapiens, UniProt P48546).
T2 construct: expressed in transfected cells; host or cells: CHO
T2 sequence (P48546 22-466): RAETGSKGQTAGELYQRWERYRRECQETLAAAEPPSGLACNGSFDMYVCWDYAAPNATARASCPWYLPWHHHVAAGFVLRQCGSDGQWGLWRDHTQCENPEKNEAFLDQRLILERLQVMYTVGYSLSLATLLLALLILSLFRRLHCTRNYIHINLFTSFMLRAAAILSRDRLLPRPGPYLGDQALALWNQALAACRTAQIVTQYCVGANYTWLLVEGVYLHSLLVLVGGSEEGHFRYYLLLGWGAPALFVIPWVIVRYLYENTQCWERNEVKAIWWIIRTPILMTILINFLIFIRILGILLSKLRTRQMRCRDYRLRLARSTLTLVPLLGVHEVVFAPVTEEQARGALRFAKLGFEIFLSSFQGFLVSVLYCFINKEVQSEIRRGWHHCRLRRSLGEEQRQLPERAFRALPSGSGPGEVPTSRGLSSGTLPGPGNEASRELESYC
The experiment can be described thus: hGIPR-mediated cAMP induction assay in CHO cell line. It is filed as cell-based.

T1 sequence (P43220 24-463): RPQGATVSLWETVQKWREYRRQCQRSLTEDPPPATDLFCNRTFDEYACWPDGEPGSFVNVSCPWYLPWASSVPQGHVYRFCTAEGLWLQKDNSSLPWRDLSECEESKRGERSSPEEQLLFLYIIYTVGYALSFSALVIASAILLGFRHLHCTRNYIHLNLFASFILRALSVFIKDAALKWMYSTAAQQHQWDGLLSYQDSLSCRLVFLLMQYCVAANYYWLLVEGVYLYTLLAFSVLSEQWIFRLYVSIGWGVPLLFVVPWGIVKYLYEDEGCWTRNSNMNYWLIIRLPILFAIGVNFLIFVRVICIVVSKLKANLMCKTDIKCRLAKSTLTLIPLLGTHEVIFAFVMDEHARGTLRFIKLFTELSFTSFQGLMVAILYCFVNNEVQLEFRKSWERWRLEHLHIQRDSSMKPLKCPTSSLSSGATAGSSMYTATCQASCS
Text for hGIPR: The cAMP in the sample or standard competes with horseradish peroxidase (HRP)-labeled cAMP conjugate for binding sites on the anti-cAMP antibodies. In the absence of cAMP, most of the HRP-cAMP conjugate is bound to the antibody. Increasing concentrations of cAMP competitively decrease the amount of bound conjugate, thus decreasing measured HRP activity.
Assay kit: CatchPoint™ Cyclic-AMP Fluorescent Assay Kit (Molecular Devices, Product # R8088)
Cell lines: CHO hGLP1R, CHO hGIPR
Cell seeding: CHO hGLP1R or CHO hGIPR cells: 10,000 cells/well/100 uL at 37° C. 5% CO2 overnight.
Gently aspirate off media and wash the cells with KRBG Buffer, 100 uL/well.
Incubate the plate for 10 min at room temperature. Then add the KRBG buffer with 3× final concentration of the tested samples (5-foled series diluted from 5,000 nM), 50 uL/well. Incubate the plate at 37° C. 5% CO2 for 30 min.
Add 50 uL of Lysis buffer to each well and put the plate on a shaker for 10 min.
Place 40 uL of samples and analyze in appropriate wells. And test the cAMP concentration in each sample by following the manufacture's instruction.
Detect the fluorescence signal at Ex: 490 nm and Em: 530 nm. Transfer the FI signal to cAMP concentration by the cAMP standard curve. The Dose-response curve and EC50 were obtained by logistic fitting of Origin 8.

`CC[C@H](C)[C@H](NC(=O)[C@H](Cc1ccccc1)NC(=O)[C@H](CC(C)C)NC(=O)[C@H](CCCCN)NC(=O)[C@H](C)NC(=O)[C@H](C)NC(=O)[C@H](CCC(N)=O)NC(=O)[C@H](CCCCN)NC(=O)[C@H](CCC(=O)O)NC(=O)[C@H](CCSC)NC(=O)[C@H](Cc1ccc(O)cc1)NC(=O)[C@@H](NC(=O)[C@H](CO)NC(=O)[C@H](Cc1ccc(O)cc1)NC(=O)[C@H](CC(=O)O)NC(=O)[C@H](CO)NC(=O)[C@@H](NC(=O)[C@H](Cc1ccccc1)NC(=O)[C@@H](NC(=O)CNC(=O)[C@H](CCC(=O)O)NC(=O)C(C)(C)NC(=O)[C@@H](N)Cc1ccc(O)cc1)[C@@H](C)O)[C@@H](C)O)[C@@H](C)CC)C(=O)N[C@@H](CCC(=O)O)C(=O)N[C@@H](Cc1c[nH]c2ccccc12)C(=O)N[C@@H](CC(C)C)C(=O)N[C@@H](CCCCN)C(=O)N[C@@H](CC(N)=O)C(=O)NCC(N)=O` [Compounds 026] (H-Y[Aib]EGTFTSDYSIYMEKQAAKLFIEWLKNG-NH2): the pEC50 (commonly the EC50 on a negative log10 scale, so that one unit is a factor of ten) is 9.42 at hGLP-1R (Table 1, CHO/hGLP-1R cells, read-out: GLP-1R EC50) and 8.38 at hGIPR (Table 1, CHO/hGIPR cells, read-out: GIPR EC50). Also, at hGLP-1R (Table 1, against native GLP-1), the “GLP-1R Relative Potency” value is listed as 288%. Moreover, at hGLP-1R (Table 3, against native GLP-1), the “GLP-1 Receptor Relative Potency” value is on record as 288. For the same molecule, the “GIPR Relative Potency” value on hGIPR (Table 1, against native GIP) came to 11.9%. Moreover, at hGIPR (Table 3, against native GIP), the “GIP Receptor Relative Potency” value stood at 11.9.

As for `CCCCCCCCCCCCCCCC(=O)N[C@@H](CCC(=O)NCCCC[C@H](NC(=O)[C@H](CO)NC(=O)[C@@H]1CCCN1C(=O)[C@@H]1CCCN1C(=O)[C@@H]1CCCN1C(=O)[C@H](C)NC(=O)CNC(=O)[C@H](CO)NC(=O)[C@H](CO)NC(=O)[C@@H]1CCCN1C(=O)CNC(=O)CNC(=O)[C@H](CCCCN)NC(=O)[C@@H](NC(=O)[C@H](CC(C)C)NC(=O)[C@H](Cc1c[nH]c2ccccc12)NC(=O)[C@H](C)NC(=O)[C@@H](NC(=O)[C@H](Cc1ccccc1)NC(=O)[C@H](CCC(=O)O)NC(=O)[C@H](CCCNC(=N)N)NC(=O)[C@@H](NC(=O)[C@H](C)NC(=O)[C@H](CCC(=O)O)NC(=O)[C@H](CCCCN)NC(=O)[C@H](CCC(=O)O)NC(=O)[C@H](CCSC)NC(=O)[C@H](Cc1ccc(O)cc1)NC(=O)[C@@H](NC(=O)[C@H](CO)NC(=O)[C@H](Cc1ccc(O)cc1)NC(=O)[C@H](CC(=O)O)NC(=O)[C@H](CO)NC(=O)[C@@H](NC(=O)[C@H](Cc1ccccc1)NC(=O)[C@@H](NC(=O)CNC(=O)[C@H](CCC(=O)O)NC(=O)C(C)(C)NC(=O)[C@@H](N)Cc1ccc(O)cc1)[C@@H](C)O)[C@@H](C)O)[C@@H](C)CC)C(C)C)[C@@H](C)CC)C(C)C)C(N)=O)C(=O)O` [Compound 090], the pEC50 at hGLP-1R (Table 3, CHO hGLP1R cells) is 9.73; on hGIPR (Table 3, CHO hGIPR cells) it was 11.05. At hGLP-1R (Table 3, against native GLP-1), the “GLP-1 Receptor Relative Potency” value worked out at 568.6. For the same molecule, the “GIP Receptor Relative Potency” value on hGIPR (Table 3, against native GIP) came to 1311.

For the molecule “H-Y[Aib]EGTFTSDYSIYMEKEAVREFIAWLVKGGPSSGAPPPSKKKKKK(Biotin)-NH2 [Compound 080]”, the pEC50 on hGLP-1R (Table 3, CHO hGLP1R cells) was 8.95; at hGIPR (Table 3, CHO hGIPR cells), 10.00. For the same molecule, the “GLP-1 Receptor Relative Potency” value on hGLP-1R (Table 3, against native GLP-1) was found to be 98.5. Further, on hGIPR (Table 3, against native GIP), the “GIP Receptor Relative Potency” value is listed as 67.

`CC[C@H](C)[C@H](NC(=O)[C@H](CO)NC(=O)[C@H](Cc1ccc(O)cc1)NC(=O)[C@H](CC(=O)O)NC(=O)[C@H](CO)NC(=O)[C@@H](NC(=O)[C@H](Cc1ccccc1)NC(=O)[C@@H](NC(=O)CNC(=O)[C@H](CCC(=O)O)NC(=O)C(C)(C)NC(=O)[C@@H](N)Cc1ccc(O)cc1)[C@@H](C)O)[C@@H](C)O)C(=O)N[C@@H](Cc1ccc([N+](=O)[O-])cc1)C(=O)N[C@@H](CC[S+](C)[O-])C(=O)N[C@@H](CCC(=O)O)C(=O)N[C@@H](CCCCN)C(=O)N[C@H](C(=O)N[C@@H](Cc1c[nH]cn1)C(=O)N[C@@H](CCC(N)=O)C(=O)N[C@@H](CCC(N)=O)C(=O)N[C@@H](CC(=O)O)C(=O)N[C@@H](Cc1ccccc1)C(=O)N[C@H](C(=O)N[C@@H](CC(N)=O)C(=O)N[C@@H](Cc1c[nH]c2ccccc12)C(=O)N[C@@H](CC(C)C)C(=O)N[C@@H](CC(C)C)C(=O)N[C@@H](C)C(=O)N[C@@H](CCC(N)=O)C(N)=O)C(C)C)[C@@H](C)CC` (stereo partly drawn) [Compound 005] (H-Y[Aib]EGTFTSDYSI[Phe(4-NO2)][Met(O)]EKIHQQDFVNWLLAQ-NH2) showed a pEC50 on hGLP-1R of less than 5.70.
